# In patent US11396517B1, “Exo-aza spiro inhibitors of menin-MLL interaction” (Janssen Pharmaceutica NV, priority 2017, dated 2022):
# Where two headings read alike, the source gives them in different places.
# What was measured:
# menin = biological target: T1, menin (Homo sapiens, UniProt O00255, T541A); assay: Menin/MLL homogenous time-resolved fluorescence (HTRF) assay; type: binding; conditions: location 2; read-out: (2) location 2 Menin HTRF assay (IC50 (nM))
# T1 construct: Menin (a.a. 1-610-6×his tag)
# T1 sequence (O00255 with tags, fused parts or gaps T541A): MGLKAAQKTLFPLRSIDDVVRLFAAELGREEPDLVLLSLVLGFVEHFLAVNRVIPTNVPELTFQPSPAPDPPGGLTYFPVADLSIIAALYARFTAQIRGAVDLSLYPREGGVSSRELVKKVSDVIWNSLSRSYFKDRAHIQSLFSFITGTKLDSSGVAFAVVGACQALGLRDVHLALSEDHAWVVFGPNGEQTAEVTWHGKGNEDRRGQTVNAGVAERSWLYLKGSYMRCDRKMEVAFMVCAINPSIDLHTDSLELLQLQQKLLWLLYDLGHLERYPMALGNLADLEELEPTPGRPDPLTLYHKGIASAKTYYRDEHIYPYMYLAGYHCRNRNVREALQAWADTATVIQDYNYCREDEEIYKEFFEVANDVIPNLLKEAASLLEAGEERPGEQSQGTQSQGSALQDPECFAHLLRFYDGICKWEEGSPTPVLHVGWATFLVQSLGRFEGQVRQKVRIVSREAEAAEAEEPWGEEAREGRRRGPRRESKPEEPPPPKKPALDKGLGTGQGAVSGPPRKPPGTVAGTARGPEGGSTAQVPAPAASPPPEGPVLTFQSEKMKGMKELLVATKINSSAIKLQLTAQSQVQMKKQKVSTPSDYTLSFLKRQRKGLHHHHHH
# Procedure, shortened: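 Displacement of 75 nM FITC-MBM1 from terbium-cryptate-labeled His-tagged menin 1-610 ([…]) was read as the 520/490 nm HTRF ratio. Compound (11-point, 3-fold series) got 5 min with menin before peptide, then 15 min at ambient; 0.5% DMSO, Tris pH 7.5.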
# MV-4-11 [1] = assay: Proliferation assay B (spheroid assay) MV-4-11; type: cell-based, human; conditions: Homo sapiens, MV4-11, 192 h, MV-4-11 cells, confluence at day 8, absolute IC50; read-out: (3b) Spheroid assay MV-4--11 (IC50(μM)) Assay B
# Method: 3b) Proliferation Assay B
# (§1) The anti-proliferative effect of menin/MLL protein/protein interaction inhibitor test compounds was assessed in human leukemia cell lines. The cell lines MV-4-11 and MOLM14 harbor MILL translocations and express the MILL fusion proteins MLL-AF4 and MLL-AF9, respectively, as well as the wildtype protein from the second allele. […] K562 was used as a control cell line containing two MLL wildtype alleles in order to exclude compounds that display general cytotoxic effects.
# (§2) MV-4-11 and MOLM14 were cultured in RPMI-1640 (Sigma Aldrich) supplemented with 10% fetal bovine serum (HyClone), 2 mM L-glutamine (Sigma Aldrich) and 50 μg/ml gentamycin (Gibco). K562 were propagated in RPMI-1640 (Sigma Aldrich) supplemented with 20% fetal bovine serum (HyClone), 2 mM L-glutamine (Sigma Aldrich) and 50 μg/ml gentamycin (Gibco).
# (§3) In order to assess the anti-proliferative effects, 1,500 MV-4-11, 300 MOLM14 cells or 750 K562 cells were seeded in 200 μl media per well in 96-well round bottom, ultra-low attachment plates (Costar, catalogue number 7007). Cell seeding numbers were chosen based on growth curves to ensure linear growth throughout the experiment. Test compounds were added at different concentrations and the DMSO content was normalized to 0.3%. Cells were incubated for 8 d at 37° C. and 5% CO2. Spheroid like growth was measured in real-time by live-cell imaging (IncuCyteZOOM, Essenbio, 4× objective) acquiring images at day 8. Confluence (%) as a measure of spheroid size was determined using an integrated analysis tool.
# In order to determine the effect of the test compounds over time, the confluence in each well as a measure of spheroid size, was calculated. Confluence […] at the beginning of the experiment (t=0) was used as baseline for the calculation.
# Absolute IC50 values were calculated as percent change in confluence as follows:
# LC=Low Control: cells treated with 1 μM of the cytotoxic agent staurosporin
# HC=High Control: Mean confluence (%) (DMSO treated cells) % Effect=100−(100*(Sample−LC)/(HC−LC))
# To determine the IC50 a curve is fitted to the plot of % Effect vs Log 10 compound concentration using a sigmoidal fit with a variable slope and fixing the maximum to 100% and the minimum to 0%.
# MOLM14 = assay: Proliferation assay B (spheroid assay) MOLM14; type: cell-based, human; conditions: MOLM14 cells, confluence at day 8, absolute IC50, read-out: (3b) Spheroid assay MOLM14 (IC50(μM)) Assay B
# Procedure, shortened: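 IC50 derived from % effect on day-8 imaged confluence, scaled between DMSO-treated cells (high) and 1 μM staurosporine (low), using a variable-slope fit constrained 0-100%. Cells seeded as spheroids in ultra-low-attachment plates and exposed to compound for 8 days, 0.3% DMSO.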
# MV-4-11 [2] = assay: Proliferation assay A (spheroid assay) MV-4-11; type: cell-based, human; conditions: MV-4-11 cells, 8 d, AUC of confluence against time, absolute IC50, read-out: (3a) Spheroid assay MV-4-11 (IC50(μM)) Assay A
# Method: 3a) Proliferation Assay A
# as §1, §2
# as §3, with “MOLM14” for “MOLM14 cells”, “monitored” for “measured”, “one image every four hours for 8 d.” for “images at day 8.”
# In order to determine the cumulative effect of the test compounds over time, the area under the curve (AUC) in a plot of confluence against time was calculated. Confluence at the beginning of the experiment (t=0) was used as baseline for the AUC calculation.
# Absolute IC50 values were calculated according to the following procedure: % Control=(AUC sample/AUC control)*100
# AUC control mean AUC of control values (cells without compound/DMSO as vehicle control)
# A non-linear curve fit was applied using the least squares (ordinary) fit method to the plot of % control versus compound concentration. Based on this, the absolute IC50 value (half maximal inhibitory concentration of the test compound causing an anti-proliferative effect of 50% relative to the vehicle control) was calculated.
compound,measurement,setting,value
Fc1ccc(NC2CC3(CCN(c4ncnc5sc(CC(F)(F)F)cc45)C3)C2)cc1 (mixture of isomers) [Compound 158],IC50,menin,72.2 nM
same,IC50,MV-4-11 [1],2.41 µM
same,IC50,"MOLM14; Homo sapiens, MOLM-14, 192 h",1.98 µM
N#Cc1ccccc1NC1CC2(CCN(c3ncnc4sc(CC(F)(F)F)cc34)C2)C1 (mixture of isomers) [Compound 162],IC50,menin,90 nM
same,IC50,MV-4-11 [1],2.84 µM
same,IC50,"MOLM14; Homo sapiens, MOLM-14, 192 h",> 3.75 µM
N#Cc1cccc(NC2CC3(CCN(c4ncnc5sc(CC(F)(F)F)cc45)C3)C2)c1 (mixture of isomers) [Compound 163],IC50,menin,77.6 nM
same,IC50,MV-4-11 [1],> 3.75 µM
same,IC50,"MOLM14; Homo sapiens, MOLM-14, 192 h",> 3.75 µM
N#Cc1ccc(NC2CC3(CCN(c4ncnc5sc(CC(F)(F)F)cc45)C3)C2)cc1 (mixture of isomers) [Compound 164],IC50,menin,12.2 nM
same,IC50,MV-4-11 [1],1.09 µM
same,IC50,"MOLM14; Homo sapiens, MOLM-14, 192 h",1.97 µM
CS(=O)(=O)N1CCC(CNC(=O)c2ccc(NC3CC4(CCN(c5ncnc6sc(CC(F)(F)F)cc56)C4)C3)cc2)CC1 (mixture of isomers) [Compound 177],IC50,menin,16.2 nM
same,IC50,MV-4-11 [1],1.02 µM
same,IC50,"MOLM14; Homo sapiens, MOLM-14, 192 h",1.22 µM
Cn1nnc2ccc(NC3CC4(CCN(c5ncnc6sc(CC(F)(F)F)cc56)C4)C3)cc21 (mixture of isomers) [Compound 216],IC50,menin,38 nM
same,IC50,MV-4-11 [1],> 3.75 µM
same,IC50,"MOLM14; Homo sapiens, MOLM-14, 192 h",> 3.75 µM
CN1CCN(Cc2cc(NC3CC4(CCN(c5ncnc6sc(CC(F)(F)F)cc56)C4)C3)ccc2C#N)CC1 (mixture of isomers) [Compound 225],IC50,menin,22.7 nM
same,IC50,MV-4-11 [1],1.95 µM
CNC(=O)c1ccc(NC2CC3(CCN(c4ncnc5sc(CC(F)(F)F)cc45)C3)C2)cc1NCCN(C)C (mixture of isomers) [Compound 239],IC50,menin,33.6 nM
same,IC50,MV-4-11 [1],> 3.75 µM
CN1CCN(c2cc(NC3CC4(CCN(c5ncnc6sc(CC(F)(F)F)cc56)C4)C3)ccc2C#N)CC1 (mixture of isomers) [Compound 240],IC50,menin,8.6 nM
same,IC50,MV-4-11 [1],1.14 µM
CNC(=O)c1ccc(NC2CC3(CCN(c4ncnc5sc(CC(F)(F)F)cc45)C3)C2)cc1CCCN1CCN(S(C)(=O)=O)CC1 (mixture of isomers) [Compound 251],IC50,menin,171 nM
same,IC50,MV-4-11 [1],> 3.75 µM
same,IC50,"MOLM14; Homo sapiens, MOLM-14, 192 h",> 3.75 µM
CNc1nc(N2CCC3(CC(Nc4ccc(C#N)cn4)C3)C2)c2cc(CC(F)(F)F)sc2n1 (mixture of isomers) [Compound 271],IC50,menin,22.5 nM
same,IC50,MV-4-11 [1],> 3.75 µM
same,IC50,"MOLM14; Homo sapiens, MOLM-14, 192 h",> 3.75 µM
O=c1[nH]c2cc(NC3CC4(CCN(c5ncnc6sc(CC(F)(F)F)cc56)C4)C3)ccc2o1 (mixture of isomers) [Compound 308],IC50,menin,5.6 nM
same,IC50,MV-4-11 [1],2.64 µM
same,IC50,"MOLM14; Homo sapiens, MOLM-14, 192 h",> 3.75 µM
FC(F)(F)Cc1cc2c(N3CCC4(CC(Nc5ccc6cnoc6c5)C4)C3)ncnc2s1 (mixture of isomers) [Compound 315],IC50,menin,4.2 nM
same,IC50,MV-4-11 [1],1.22 µM
same,IC50,"MOLM14; Homo sapiens, MOLM-14, 192 h",3.41 µM
O=c1[nH]c2ccc(NC3CC4(CCN(c5ncnc6sc(CC(F)(F)F)cc56)C4)C3)cc2[nH]1 (mixture of isomers) [Compound 319],IC50,menin,17.4 nM
same,IC50,MV-4-11 [1],> 3.75 µM
same,IC50,"MOLM14; Homo sapiens, MOLM-14, 192 h",> 3.75 µM
O=C(c1ccc(NC2CC3(CCN(c4ncnc5sc(CC(F)(F)F)cc45)C3)C2)cc1)N1CCOCC1 (mixture of isomers) [Compound 333],IC50,menin,10.3 nM
same,IC50,MV-4-11 [1],0.12 µM
same,IC50,"MOLM14; Homo sapiens, MOLM-14, 192 h",0.14 µM
COc1cc(NC2CC3(CCN(c4ncnc5sc(CC(F)(F)F)cc45)C3)C2)ccn1 (mixture of isomers) [Compound 341],IC50,menin,50.3 nM
same,IC50,"MV-4-11 [2]; Homo sapiens, MV4-11, 192 h",0.84 µM
same,IC50,"MOLM14; Homo sapiens, MOLM-14, 192 h",3.03 µM
Nc1nc(N2CCC3(CC(Nc4ccc5[nH]c(=O)oc5c4)C3)C2)c2cc(CC(F)(F)F)sc2n1 (mixture of isomers) [Compound 384],IC50,menin,32.6 nM
same,IC50,MV-4-11 [1],> 3.75 µM
same,IC50,"MOLM14; Homo sapiens, MOLM-14, 192 h",1.49 µM
CNc1nc(N2CCC3(CC(Nc4ccc5[nH]c(=O)oc5c4)C3)C2)c2cc(CC(F)(F)F)sc2n1 (mixture of isomers) [Compound 399],IC50,menin,26.4 nM
same,IC50,MV-4-11 [1],> 3.75 µM
same,IC50,"MOLM14; Homo sapiens, MOLM-14, 192 h",> 3.75 µM
"CNC(=O)c1ccc(NC2CC3(CCN(c4ncnc5sc(CC(F)(F)F)cc45)C3)C2)cc1 (single isomer, unassigned) [Compound 95]",IC50,menin,34.6 nM
same,IC50,MV-4-11 [2],1.27 µM
same,IC50,MOLM14,0.82 µM
"CS(=O)(=O)NCCCNC(=O)c1ccc(NC2CC3(CCN(c4ncnc5sc(CC(F)(F)F)cc45)C3)C2)nc1 (single isomer, unassigned) [Compound 275]",IC50,menin,2.4 nM
same,IC50,MV-4-11 [1],1.09 µM
"CNS(=O)(=O)c1ccc(NC2CC3(CCN(c4ncnc5sc(CC(F)(F)F)cc45)C3)C2)cc1 (single isomer, unassigned) [Compound 318]",IC50,menin,8.1 nM
same,IC50,"MV-4-11 [2]; Homo sapiens, MV4-11, 192 h",0.6 µM
same,IC50,"MOLM14; Homo sapiens, MOLM-14, 192 h",3.07 µM
"FC(F)(F)Cc1cc2c(N3CCC4(CC(Nc5ccc(-c6cn[nH]c6)cc5)C4)C3)ncnc2s1 (single isomer, unassigned) [Compound 327]",IC50,menin,8.4 nM
same,IC50,"MV-4-11 [2]; Homo sapiens, MV4-11, 192 h",0.56 µM
same,IC50,"MOLM14; Homo sapiens, MOLM-14, 192 h",> 3.75 µM
CNC(=O)c1ccc(NC2CC3(CCN(c4nc(NC)nc5sc(CC(F)(F)F)cc45)C3)C2)cc1 (centres unmarked) [Compound 64],IC50,menin,2.4 nM
same,IC50,"MV-4-11 [2]; Homo sapiens, MV4-11, 192 h",0.14 µM
same,IC50,"MOLM14; Homo sapiens, MOLM-14, 192 h",0.92 µM
O=C1Cc2ccc(NC3CCC4(C3)CN(c3ncnc5sc(CC(F)(F)F)cc35)C4)cc2N1 (centres unmarked) [Compound 292],IC50,menin,81.3 nM
same,IC50,"MV-4-11 [2]; Homo sapiens, MV4-11, 192 h",> 3.75 µM
FC(F)(F)Cc1cc2c(N3CC4(CCC(Nc5ccc(-c6cc[nH]n6)cc5)C4)C3)ncnc2s1 (centres unmarked) [Compound 301],IC50,menin,32.3 nM
same,IC50,"MV-4-11 [2]; Homo sapiens, MV4-11, 192 h",1.76 µM
FC(F)(F)Cc1cc2c(N3CC4(CCC(Nc5ccc(-c6cn[nH]c6)cc5)C4)C3)ncnc2s1 (centres unmarked) [Compound 302],IC50,menin,509 nM
same,IC50,"MV-4-11 [2]; Homo sapiens, MV4-11, 192 h",2.56 µM
